Measurements from US10947296B2, “Fusion protein Slit2D2(C386S)-HSA and use thereof in treatment of fibrotic diseases” (SUZHOU THINKING POWER BIOTECHNOLOGY CO., LTD., priority 2016, dated 2021).

Tests used:
pulmonary fibrosis model = assay: Efficacy on bleomycin-induced pulmonary fibrosis model; format: in vivo; design: body weight of the animals (Mean ± SEM) / Weight of the left lung (Mean ± SEM) / Volume of the left lung (Mean ± SEM): unit not given here; details: for body weight of the animals (Mean ± SEM): PFD 50mpk BID PO
Experimental: Animals were anesthetized by inhaling isoflurane. After confirmation of anesthesia, the animals were sterilized, then the neck skin was cut, the muscles were bluntly separated to expose the trachea, and bleomycin (dosage: 3 mg/kg, volume: 1.0 mL/kg) was directly injected between the tracheal rings. After the operation, the animals were placed in a 37° C. electric blanket to keep warm until the animals were completely awakened. After confirming that they were able to eat and drink freely, the animals were returned to the cage for normal feeding.
In this experiment, there were four groups, i.e., model group (experimental group-1, […]), PFD group (experimental group-2, n=6), Slit2D2(C386S)-HSA-1 mg/kg (experimental group-3, n=6), and Slit2D2(C386S)-HSA-5 mg/kg (experimental group-4, n=6).
In this experiment, the positive control drug (PFD) was given to rats by gavage twice a day, which was started on the day of modeling, and administered continuously for 14 days. The test compound (Slit2D2(C386S)-HSA) was given intravenously once every other day, which was started on the day of modeling, and a total of seven doses were administered (as shown in table 6).
Physiological observation of the experimental animals: changes in body weight of the animals were measured (body weight was measured once a day before administration); and the death rate of animals during the test period was monitored.
Animals were euthanized 24 hours after the last administration on the 14th day of modeling. After confirming the death of the animals, the left lung was fixed by intrapulmonary infusion of formalin, and the volume and weight of the left lung after perfusion were measured for relevant examination of the pulmonary pathology.
General pathological examination: After the perfusion with an equal amount of formalin in the left lung, the wet weight of left lung after perfusion was weighed/recorded with a micro-balance; and the volume of left lung after perfusion was measured and recorded using a micro-measuring cup.
Pathological examination of lung tissue: The whole lung was dehydrated. Lung paraffin sections were made with paraffin blocks. […] HE staining and Masson Trichrome staining were performed according to pathological staining SOP, and whole section scanning was performed using a Digital Pathscope slice scanner. Pathological analysis and scoring of changes in damage and inflammation of terminal bronchioles and accompanying small pulmonary artery at the periphery of the lesions (as shown in Tables 7 and 8 and FIG. 7) were performed using the HE-stained sections. Lesion area calculation, lesion pathology analysis and scoring were performed with the Masson Trichrome-stained sections (as shown in Table 9 and FIG. 8).
The mean±sd or mean±sem was calculated using the graphpad prism software, and the significant difference test was performed using t-test, one-way ANOVA and two-way ANOVA test. A significant difference between the two groups was considered at p<0.05.

Robo1 protein = target: T1, Robo1 protein (Homo sapiens, UniProt Q9Y6N7); assay: Affinity of the fusion protein to receptor Robo1 determined by SPR; format: binding; details: Robo1 bound to CM5 chip
T1 construct: purchased ORIGEN TP327713
T1 sequence (Q9Y6N7 26-1651): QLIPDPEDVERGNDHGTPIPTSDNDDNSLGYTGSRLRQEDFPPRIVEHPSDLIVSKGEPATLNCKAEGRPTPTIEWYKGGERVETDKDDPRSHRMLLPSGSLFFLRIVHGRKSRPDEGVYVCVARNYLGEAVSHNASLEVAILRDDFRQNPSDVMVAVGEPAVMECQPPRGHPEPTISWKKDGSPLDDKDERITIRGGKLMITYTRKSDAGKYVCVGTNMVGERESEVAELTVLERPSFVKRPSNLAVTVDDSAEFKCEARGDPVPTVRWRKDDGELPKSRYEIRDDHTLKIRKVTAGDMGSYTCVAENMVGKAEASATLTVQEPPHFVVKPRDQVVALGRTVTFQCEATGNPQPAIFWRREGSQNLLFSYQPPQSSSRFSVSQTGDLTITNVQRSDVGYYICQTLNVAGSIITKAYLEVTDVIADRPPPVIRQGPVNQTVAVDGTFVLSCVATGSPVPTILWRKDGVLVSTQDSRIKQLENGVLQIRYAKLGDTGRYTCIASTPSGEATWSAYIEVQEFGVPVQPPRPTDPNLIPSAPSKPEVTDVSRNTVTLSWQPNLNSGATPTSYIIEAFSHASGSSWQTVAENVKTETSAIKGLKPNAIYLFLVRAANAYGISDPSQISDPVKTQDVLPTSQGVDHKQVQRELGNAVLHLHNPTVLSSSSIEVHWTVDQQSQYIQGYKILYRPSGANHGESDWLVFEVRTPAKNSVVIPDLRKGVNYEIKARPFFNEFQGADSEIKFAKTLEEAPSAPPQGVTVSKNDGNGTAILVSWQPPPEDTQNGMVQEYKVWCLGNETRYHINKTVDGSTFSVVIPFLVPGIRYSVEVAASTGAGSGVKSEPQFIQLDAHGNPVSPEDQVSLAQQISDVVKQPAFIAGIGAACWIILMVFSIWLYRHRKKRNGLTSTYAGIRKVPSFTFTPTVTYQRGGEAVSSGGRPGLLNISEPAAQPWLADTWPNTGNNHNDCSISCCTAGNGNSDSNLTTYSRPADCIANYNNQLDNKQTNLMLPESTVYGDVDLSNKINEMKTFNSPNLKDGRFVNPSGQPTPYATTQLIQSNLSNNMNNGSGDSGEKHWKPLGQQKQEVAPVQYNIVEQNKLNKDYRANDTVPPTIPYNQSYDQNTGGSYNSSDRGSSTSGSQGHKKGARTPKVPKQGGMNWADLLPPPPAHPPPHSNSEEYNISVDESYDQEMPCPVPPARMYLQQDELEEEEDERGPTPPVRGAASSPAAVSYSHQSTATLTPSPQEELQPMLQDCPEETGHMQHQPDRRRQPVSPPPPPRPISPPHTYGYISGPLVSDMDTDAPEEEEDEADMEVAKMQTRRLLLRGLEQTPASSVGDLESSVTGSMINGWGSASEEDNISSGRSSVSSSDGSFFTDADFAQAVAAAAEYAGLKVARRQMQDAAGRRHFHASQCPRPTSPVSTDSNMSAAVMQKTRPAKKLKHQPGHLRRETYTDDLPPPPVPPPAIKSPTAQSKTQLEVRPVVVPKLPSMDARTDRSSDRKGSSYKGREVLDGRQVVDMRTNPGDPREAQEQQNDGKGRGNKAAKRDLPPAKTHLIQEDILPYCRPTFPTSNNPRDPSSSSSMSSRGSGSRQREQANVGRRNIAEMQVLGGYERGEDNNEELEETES
Experimental: The affinity constant between the protein and Robo1 protein was detected by SPR (Surface Plasmon resonance BIAcore 200) method. The Robo1 protein (ORIGEN, Art. No.: TP327713) was bound to a CM5 chip, and the interaction between the fusion protein Slit2D2(C386S)-HSA (prepared in Example 1), Slit2D2-HSA (as disclosed in Patent Application PCT/CN2015/092079), and the receptor protein Robo1 were analyzed. Kinetic measurements were performed according to the method referred by Canziani et al. (2004, Anal. Biochem. 325: 301-307). Furthermore, the affinity of the Slit2N protein (Slit2N is a protein having a molecular weight of about 120 kDa at the N-terminus of the Slit2 protein) to Robo1 protein was also determined by the same method.

Row | Molecule | body weight of the animals (Mean ± SEM) (pulmonary fibrosis model; Day 1) | body weight of the animals (Mean ± SEM) (pulmonary fibrosis model; Day 3) | body weight of the animals (Mean ± SEM) (pulmonary fibrosis model; Day 5) | body weight of the animals (Mean ± SEM) (pulmonary fibrosis model; Day 7) | body weight of the animals (Mean ± SEM) (pulmonary fibrosis model; Day 9) | body weight of the animals (Mean ± SEM) (pulmonary fibrosis model; Day 11) | body weight of the animals (Mean ± SEM) (pulmonary fibrosis model; Day 13) | inhibition on the progression of pulmonary fibrosis (pulmonary fibrosis model; continuous administration for 14 days, 50 mg/kg PO BID) | Ka (Robo1 protein) [M⁻¹ s⁻¹]
1 | Cc1ccc(=O)n(-c2ccccc2)c1 [PFD, Pirfenidone, reference compound] | 279.4 ± 2.3 | 261.8 ± 3.9 | 265.0 ± 6.4 | 282.9 ± 7.4 | 298.4 ± 8.0 | 312.6 ± 8.8 | 321.7 ± 8.3 | significant inhibition | –
2 | Slit2N: Protein having a molecular weight of about 120 kDa at the N-terminus of the Slit2 protein (protein) QCSCSGSTVDCHGLALRSVPRNIPRNTERLDLNGNNITRITKTDFAGLRHLRVLQLMENKISTIERGAFQDLKELERLRLNRNHLQLFPELLFLGTAKLYRLDLSENQIQAIPRKAFRGAVDIKNLQLDYNQISCIEDGAFRALRDLEVLTLNNNNITRLSVASFNHMPKLRTFRLHSNNLYCDCHLAWLSDWLRQRPRVGLYTQCMGPSHLRGHNVAEVQKREFVCSGHQSFMAPSCSVLHCPAACTCSNNIVDCRGKGLTEIPTNLPETITEIRLEQNTIKVIPPGAFSPYKKLRRIDLSNNQISELAPDAFQGLRSLNSLVLYGNKITELPKSLFEGLFSLQLLLLNANKINCLRVDAFQDLHNLNLLSLYDNKLQTIAKGTFSPLRAIQTMHLAQNPFICDCHLKWLADYLHTNPIETSGARCTSPRRLANKRIGQIKSKKFRCSAKEQYFIPGTEDYRSKLSGDCFADLACPEKCRCEGTTVDCSNQKLNKIPEHIPQYTAELRLNNNEFTVLEATGIFKKLPQLRKINFSNNKITDIEEGAFEGASGVNEILLTSNRLENVQHKMFKGLESLKTLMLRSNRITCVGNDSFIGLSSVRLLSLYDNQITTVAPGAFDTLHSLSTLNLLANPFNCNCYLAWLGEWLRKKRIVTGNPRCQKPYFLKEIPIQDVAIQDFTCDDGNDDNSCSPLSRCPTECTCLDTVVRCSNKGLKVLPKGIPRDVTELYLDGNQFTLVPKELSNYKHLTLIDLSNNRISTLSNQSFSNMTQLLTLILSYNRLRCIPPRTFDGLKSLRLLSLHGNDISVVPEGAFNDLSALSHLAIGANPLYCDCNMQWLSDWVKSEYKEPGIARCAGPGEMADKLLLTTPSKKFTCQGPVDVNILAKCNPCLSNPCKNDGTCNSDPVDFYRCTCPYGFKGQDCDVPIHACISNPCKHGGTCHLKEGEEDGFWCICADGFEGENCEVNVDDCEDNDCENNSTCVDGINNYTCLCPPEYTGELCEEKLDFCAQDLNPCQHDSKCILTPKGFKCDCTPGYVGEHCDIDFDDCQDNKCKNGAHCTDAVNGYTCICPEGYSGLFCEFSPPMVLPR | – | – | – | – | – | – | – | – | 743600
